Assay results published in patent publication US11351222B2, “Di-sulfide containing cell penetrating peptides and methods of making and using thereof” (Ohio State Innovation Foundation, priority 2016, dated 2022).
Bridge positions count the residues as written; N and C are the ends. Square brackets hold non-standard residues; d marks the D form. Ends that are not written are not given here. BMB = 3,5-bis(mercaptomethyl)benzoic acid scaffold; 2Nal = N[C@@H](Cc1ccc2ccccc2c1)C(=O)O

What was measured:
[1] = system: HeLa cells; assay: Flow cytometry cellular uptake of FITC-labeled peptides; assay type: cell-based; conditions: for mean fluorescence intensity (MFI): 5 μM FITC-labeled peptide; for mean fluorescence intensity (MFI) / higher cell entry efficiency than cFΦR4: 2 h; for higher cell entry efficiency than cFΦR4: 5 μM
Protocol: HeLa cells were cultured in six-well plates (5×10^5 cells per well) for 24 h. On the day of experiment, the cells were incubated with 5 μM FITC-labeled peptide in clear DMEM with 1% FBS at 37° C. for 2 h. The cells were washed with DPBS, detached from plate with 0.25% trypsin, diluted into clear DMEM containing 10% FBS, pelleted at 250 g for 5 min, washed once with DPBS and resuspended in DPBS containing 1% bovine serum albumin, and analyzed on a BD LSR II flow cytometer. Data were analyzed with Flowjo software (Tree Star).
To monitor their cellular uptake, peptides 2 and 3 were labeled with fluorescein isothiocyanate (FITC) on the side chain of a C-terminal lysine. […] Thus, bicyclic peptides 2 and 3 entered HeLa cells with 72% and 36% higher efficiencies, respectively, than cFΦR4 (SEQ ID NO.:72).
Peptides 4 and 5 were labeled with FITC at the side chain of a lysine added to their C-termini and their cellular entry was assessed by flow cytometry. […] Briefly, in the presence of an anti-glutathione-S-transferase (GST) antibody labeled with a fluorescence donor (Tb) and streptavidin labeled with a fluorescence acceptor (d2), binding of GST-NEMO to a biotinylated IKKβ fragment (amino acids 701-745) (B. Gao, et al., Biochemistry 2014, 53, 677) results in a resonance energy transfer. Addition of a NEMO inhibitor blocks the NEMO-IKKβ interaction and reduces the HTRF signal. […] IKKβ contains a phenylalanine at the same position (Phe-734). […] Thus, the phenylalanine in peptide 4 likely plays dual roles of cellular entry and NEMO binding.

[2] = system: mammalian cells; conditions: previously reported; cited from earlier work
[3] = biological target: T1, NEMO-IKKβ interaction (Homo sapiens, UniProt Q9Y6K9); assay: HTRF assay of the NEMO-IKKβ interaction; assay type: binding; conditions: up to 100 μM peptide, 5 mM TCEP
T1 construct: transformed with a pGEX4T3-GST-NEMO(1-196) plasmid; made in house; host or cells: Escherichia coli BL21(DE3)

[4] = system: TNFα-induced activation of NF-κB in NF-κB reporter (Luc)-HEK293 cells; assay: NF-κB luciferase assay
Protocol: NF-κB reporter (Luc)-HEK293 cells were seeded in 96-well microplate in 45 μL of assay medium (DMEM, 10% FBS, and 1% penicillin/streptomycin, 1500 cells per well) and cultured overnight. Five μL of NEMO inhibitor in assay medium was added to cells and the cells were incubated for 2 h. Recombinant TNFα^3 in 5 μL of assay medium was added to the wells at the final concentration of 5 ng/mL. After 4 h of incubation, 55 μL of ONE-Step luciferase assay reagent was added to each well. Luminescence was measured after 10 min of incubation using a Tecan Infinite M1000 Pro microplate reader. Luciferase activities of TNFα unstimulated and stimulated cells were recorded as AU″ and AU^+, respectively. Luciferase activities of TNFα stimulated cells after incubating with different concentrations of NEMO inhibitors were recorded as AU^pep.
The ability of the bicyclic peptides to modulate the NEMO-IKK interaction inside the cell was assessed by monitoring the TNFα-induced activation of NF-κB.

T1 sequence (Q9Y6K9 1-196): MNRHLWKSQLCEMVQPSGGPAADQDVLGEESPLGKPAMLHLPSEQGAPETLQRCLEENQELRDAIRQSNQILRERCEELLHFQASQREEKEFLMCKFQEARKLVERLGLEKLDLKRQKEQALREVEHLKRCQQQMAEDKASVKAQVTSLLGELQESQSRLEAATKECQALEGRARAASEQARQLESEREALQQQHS

Substance | mean fluorescence intensity (MFI) [1] | higher cell entry efficiency than cFΦR4 ([1]; relative to cFΦR4) [%] | cytosolic delivery efficiency (ratio of cytosolic over extracellular cargo concentration) [2] [%] | inhibition of the NEMO-IKKβ interaction [3] | effect on NF-κB signaling ([4]; at 20 μM) | inhibition of NF-κB signaling ([4]; highest concentration tested (40 μM)) [%] | MFI higher than that of cFΦR4 ([1]; FITC-labeled peptide, relative to cFΦR4) [fold]
2: bicyclic model peptide with CPP motif and mock cargo SASAS on BMB scaffold (cyclo(RRRR[2Nal]FCSASASCK); linker 7-13 via BMB (inferred)) [Peptide 2] | 5180 | 72 |  |  |  |  | 
Cyclo(FΦRRRRQ) [cFΦR4, reference compound] | 3020 |  | 20 |  |  |  | 
5: control, similar to peptide 4 but two Ala residues in place of the two Trp residues (RRRR[2Nal]FCALDASALQC; linker 7-16 via BMB; not fully specified (C-terminus, bridges)) [Peptide 5] |  |  |  | only minor inhibition | no significant effect | ~10 | 2
3: bicyclic model peptide with CPP motif and mock cargo SASAS on BMB scaffold (cyclo(SASASCF[2Nal]RRRRCK); linker 6-13 via BMB (inferred)) [Peptide 3] | 4100 | 36 |  |  |  |  | 
